Measurements reported in patent publication US7071165B2, “LHRH antagonist peptides” (Indiana University Research and Technology Corporation, priority 1995, dated 2006).

Tested on: ovulation in female rats
Assay: Anti-ovulatory activity (AOA) in vivo assay in rats
Set-up: species or system rat
Conditions: dose 1 μg per rat
Method: As used herein, “LHRH antagonist peptide” is intended to include peptides and peptide analogs which inhibit LHRH activity (i.e., has “LHRH antagonist activity”) in vivo or in vitro. Candidate LHRH antagonist peptides can be assayed, for example, in the animal model described in Corbin and Beattie, Endocrine Res. Commun. 2:1 (1975) (and see infra). In this assay, the LHRH antagonistic activity of a candidate compound is assayed by measuring the antiovulatory activity (AOA) of the compound in rats.
Anti-ovulatory activity (AOA) was measured by an in vivo assay in rats, as described in Corbin and Beattie, Endocrine Res. Commun. 2:1 (1975). In brief, female rats are injected with a candidate LHRH antagonist on the day of proestrus; in general, the candidate LHRH antagonist was dissolved in 0.1% DMSO. The ability of the candidate peptide to inhibit ovulation is measured by determining the number of rats which ovulate. A candidate peptide is considered to have LHRH antagonist qualities if it inhibits ovulation in at least 50% of the treated rats at a dose of 5 μg per rat. Preferred LHRH antagonists inhibit ovulation in at least 50% of rats at a dose of 2 μg per rat, more preferably at a dose of […], and still more preferably at a dose of 0.5 μg per rat.

Substance | AO activity (AOA): rats which ovulate / rats treated
Ac-Sar^1, 4-Cl-D-Phe^2, 1-1-Nal^3, D-Pal(Bzl)^6, Lys(iPr)^8,D-Ala^10-LHRH.2TFA [Compound 3769] | 6/8@1.0
Ac-D-Nal^1, 4-Cl-D-Phe^2, D-Pal^3, D-Glu(Dea)^6, Lys(iPr)^8, D-Ala^10-LHRH.TFA [Compound 3543] | 6/8@1 μg
Ac-D-Nal^1, 4-Cl-D-Phe^2, D-Pal^3, D-Lys(Glycolyl)^6, Lys(iPr)^8, D-Ala^10-LHRH.TFA [Compound 3437] | 7/8@1 μg
Ac-D-Nal^1, 4-Cl-D-Phe^2, D-Pal^3, D-Met(S^+CH2COPh)^6, D-Ala^10-LHRH.2TFA [Compound 3968] | 4/8@1.00
Ac-D-Nal^1, 4-Cl-D-Phe^2, D-Trp^3, D-Met(S^+CH2—CH═CH2)^6, D-Ala^10-LHRH.2TFA [Compound 3984] | 3/8@1.00
Ac-D-Nal^1, 4-Cl-D-Phe^2, D-Pal^3, Lys(CNa)^5, D-Lys(CNa)^6, Lys(iPr)^8, D-Ala^10-LHRH.2TFA [Compound 3551] | 6/8@1 μg
Ac-D-Nal^1, 4-Cl-D-Phe^2, D-Pal^3, Pal^5, D-Cit^6, Lys(iPr)^8, D-Ala^10-LHRH.TFA [Compound 3432] | 7/8@1 μg
Ac-D-Nal^1, 4-Cl-D-Phe^2, D-Pal^3, D-Arg^6, Dap(COCH2S^+Me2)^8, D-Ala^10-LHRH.2TFA [Compound 4023] | 0/8@1.00
Ac-D-Nal^1, 4-Cl-D-Phe^2, D-Pal^3, Lys(iPr)^5, D-Lys(4HBc)^6, Lys(iPr)^8, D-Ala^10-LHRH.2TFA [Compound 3745] | 6/8@1.0
Ac-D-Nal^1, 4-Cl-D-Phe^2, D-Pal^3, Ser^5, D-Pal(iPr)^6, Lys(iPr)^8, D-Ala^10-LHRH.2TFA [Compound 3743] | 8/8@1.0
Ac-D-Qal^1, 4-Cl-D-Phe^2, D-Pal^3, D-Lys(Ppic)^6, Lys(iPr)^8, D-Ala^10-LHRH.TFA [Compound 3787] | 7/8@1.0
Ac-D-Nal^1, 4-Cl-D-Phe^2, D-Pal^3, D-HomoArg(NO2)^6, Lys(iPr)^8, D-Ala^10-LHRH.TFA [Compound 3436] | 7/8@1 μg
Ac-D-Nal^1, 4-Cl-D-Phe^2, D-Pal^3, D-Arg^6, Met^8, D-Ala^10-LHRH.TFA [Compound 3995] | 5/8@1.00
Ac-D-Qal^1, 4-Cl-D-Phe^2, D-Pal^3, D-Lys(Gulonyl)^6, Lys(iPr)^8, D-Ala^10-LHRH.TFA [Compound 3785] | 7/8@1.0
Ac-D-Nal^1, 4-Cl-D-Phe^2, D-Pal^3, Cit^5, D-Cit^6, Lys(iPr)^8, D-Ala^10-LHRH.TFA [Compound 3431] | 6/8@1 μg
Ac-D-Nal^1, 4-Cl-D-Phe^2, D-Pal^3, Asn^4, Tyr^5, D-Cit^6, Lys(iPr)^8, D-Ala^10-LHRH.TFA [Compound 3434] | 4/8@1 μg
Ac-N^αMe-D-Nal^1, 4-Cl-D-Phe^2, D-Pal^3, D-Cit^6, Lys(iPr)^8, D-Ala^10-LHRH.TFA [Compound 3442] | 7/8@1 μg
Ac-D-Nal^1, 4-Cl-D-Phe^2, D-Pal^3, D-Pal(CH2COOH)^6, Lys(iPr)^8, D-Ala^10-LHRH.TFA [Compound 3770] | 6/8@1.0
Ac-D-Nal^1, 4-Cl-D-Phe^2, D-Pal^3, D-Glu^6, Lys(iPr)^8, D-Ala^10-LHRH.TFA [Compound 3552] | 8/8@1 μg
Ac-D-Nal^1, 4-Cl-D-Phe^2, D-Trp^3, D-Met(S^+CH2C6H5)^6, D-Ala^10-LHRH.2TFA [Compound 3961] | 3/8@1.00
Ac-D-Nal^1, 4-Cl-D-Phe^2, D-Pal^3, Lys(Pyz)^5, D-Lys(Pyz)^6, Lys(iPr)^8, D-Ala^10-LHRH.TFA [Compound 3504] | 4/8@1 μg

Substance | AO activity (AOA): rats which ovulate / rats treated
Ac-D-Nal^1, 4-Cl-D-Phe^2, D-Pal^3, Lys(ONic)^5, D-Lys(ONic)^6, Lys(iPr)^8, D-Ala^10-LHRH.TFA [Compound 3503] | 6/8@1 μg
Ac-D-Nal^1, 4-Cl-D-Phe^2, D-Pal^3, D-Lys(3-pyridineacetic)^6, Lys(iPr)^8, D-Ala^10-LHRH.TFA [Compound 3440] | 2/8@1 μg
Ac-Sar^1, 4-Cl-D-Phe^2, D-1-Nal^3, D-Pal(iPr)^6, Lys(iPr)^8, D-Ala^10-LHRH.2TFA [Compound 3772] | 8/8@1.0
Ac-D-Nal^1, 4-Cl-D-Phe^2, D-Pal^3, D-Glu(CSer)^6, Lys(iPr)^8, D-Ala^10-LHRH.2TFA [Compound 3550] | 6/8@1 μg
Ac-D-Nal^1, 4-Cl-D-Phe^2, D-Pal^3, D-Lys(HomoPro)^6, Lys(iPr)^8, D-Ala^10-LHRH.TFA [Compound 3439] | 2/8@1 μg
Ac-D-Nal^1, 4-Cl-D-Phe^2, D-Pal^3, D-Lys(Dodac)^6, Lys(iPr)^8, D-Ala^10-LHRH.TFA [Compound 3803] | 2/8@1.0
Ac-D-Nal^1, 4-Cl-D-Phe^2, D-Pal^3, N-Me-Ala^5, D-Pal(iPr)^6, Lys(iPr)^8, D-Ala^10-LHRH.2TFA [Compound 3757] | 7/8@1.0
Ac-D-Nal^1, 4-Cl-D-Phe^2, D-Pal^3, D-Lys(2-ClNic)^6, Lys(iPr)^8, D-Ala^10-LHRH.TFA [Compound 3441] | 8/8@1 μg
Ac-D-Nal^1, 4-Cl-D-Phe^2, D-Pal^3, D-Arg^6, Orn(COCH2SMe)^8, D-Ala^10-LHRH.2TFA [Compound 3994] | 6/8@1.00
Ac-D-Nal^1, 4-Cl-D-Phe^2, D-Pal^3, D-Glu(Amp)^6, Lys(iPr)^8, D-Ala^10-LHRH.TFA [Compound 3511] | 7/8@1 μg
Ac-D-Nal^1, 4-Cl-D-Phe^2, D-Pal^3, D-Dap(COCH2S^+Me2)^6, D-Ala^10-LHRH.2TFA [Compound 3969] | 3/8@1.00
Ac-D-Nal^1, 4-Cl-D-Phe^2, D-Trp^3, D-Arg^6, Lys(COCH2Br)^8, D-Ala^10-LHRH.TFA [Compound 3926] | 6/8@1.0
Ac-D-Qal^1, 4-Cl-D-Phe^2, D-Pal^3, D-Lys(Otac)^6, Lys(iPr)^8, D-Ala^10-LHRH.TFA [Compound 3802] | 5/8@1.0
Ac-D-Nal^1, 4-Cl-D-Phe^2, D-Pal^3, D-Lys(Gulonyl)^6, Lys(iPr)^8, D-Ala^10-LHRH.TFA [Compound 3506] | 4/8@1 μg
Ac-D-Nal^1, 4-Cl-D-Phe^2, D-Pal^3, Asn^5, D-Pal(iPr)^6, Lys(iPr)^8, D-Ala^10-LHRH.2TFA [Compound 3744] | 7/8@1.0
Ac-D-Nal^1, 4-Cl-D-Phe^2, D-Pal^3, D-Met(S^+Me)^6, Met(S^+Me)^8, D-Ala^10-LHRH.2TFA [Compound 4016] | 6/8@1.00
Ac-D-Nal^1, 4-Cl-D-Phe^2, D-Pal^3, Cit^5, D-Pal(iPr)^6, Lys(iPr)^8, D-Ala^10-LHRH.TFA [Compound 3435] | 7/8@1 μg
Ac-D-Nal^1, 4-Cl-D-Phe^2, D-Pal^3, Cit^5, D-Pal^6, Lys(iPr)^8, D-Ala^10-LHRH.TFA [Compound 3433] | 5/8@1 μg
Ac-D-Qal^1, 4-Cl-D-Phe^2, D-Pal^3, D-Lys(Imdac)^6, Lys(iPr)^8, D-Ala^10-LHRH.TFA [Compound 3800] | 7/8@1.0
Ac-D-Nal^1, 4-Cl-D-Phe^2, D-Pal^3, D-Lys(Orotic)^6, Lys(iPr)^8, D-Ala^10-LHRH.TFA [Compound 3762] | 6/8@1.0

Same assay, conditions: dose 2 μg per rat

Substance | AO activity (AOA): rats which ovulate / rats treated
Ac-D-Nal^1, 4-Cl-D-Phe^2, D-Pal^3, D-Glu(PEG)^6, Lys(iPr)^8, D-Ala^10-LHRH.2TFA [Compound 3542] | 7/8@2 μg
Ac-D-Nal^1, 4-Cl-D-Phe^2, D-Trp^3, D-Met(S^+CH2C6H5)^6, D-Ala^10-LHRH.2TFA [Compound 3961] | 4/8@2.00

Same assay, conditions: dose 5 μg per rat

Substance | AO activity (AOA): rats which ovulate / rats treated
Ac-L-(or D)-9-anthryl-Ala^1, 4-Cl-D-Phe^2, D-Pal^3, D-Cit^6-Lys(iPr)^8, D-Ala^10-LHRH.TFA [Compound 3367] | 7/8@5 μg
Ac-D-(or L)-9-anthryl-Ala^1, 4-Cl-D-Phe^2, D-Pal^3, D-Cit^6-Lys(iPr)^8, D-Ala^10-LHRH.TFA [Compound 3366] | 6/8@5 μg

Same assay, conditions: dose 50 μg per rat

Substance | AO activity (AOA): rats which ovulate / rats treated
Lys(COCH2Br)^8-LHRH [Compound 3942] | 8/8@50.0

Same assay, conditions: rat, in vivo

Substance | AO activity (AOA), in words
Ac-D-Nal^1, 4-Cl-D-Phe^2, D-Trp^3, D-Lys(COCH2Br)^6, D-Ala^10-LHRH.TFA [Compound 3948] | low activity
Ac-D-Nal^1, 4-Cl-D-Phe^2, D-Pal^3, D-Arg^6, Dap(COCH2S^+Me2)^8, D-Ala^10-LHRH.2TFA [Compound 4023] | effective
Ac-D-Nal^1, 4-Cl-D-Phe^2, D-Pal^3, D-Lys(COCH2CH2N(Et)2)^6, D-Ala^10-LHRH.2TFA [Compound 3949] | low activity
